The values below come from patent US20250205230A1 (priority 2022, published 2025).

Test [1] deals with VSV-G glycoprotein. It counts as cell-based, vesicular stomatitis Indiana virus (VSV).
For test [2], the system named is VSV-G. It is filed as cell-based, vesicular stomatitis Indiana virus (VSV).

On to `CN(N=Cc1ccc(O)c(O)c1)c1nc(-c2ccccc2)cc(-c2ccccc2)n1` [MK-28, 4-((2-(4,6-diphenylpyrimidin-2-yl)-2-methylhydrazineylidene)methyl) benzene-1,2-diol], for which, in test [1], the “Endo H-resistance of VSV-G relative to untreated control cells” value is “about half the resistance of untreated control cells”. Moreover, the “Endo H-resistance of VSV-G” value in test [2] was “decreased considerably”.
